# Paper PMC8599855, “Detection of cancer stem cells by EMT-specific biomarker-based peptide ligands” (Scientific Reports, 2021)
# Test system: SAS cells
# Assay: Western blot of EMT/CSC markers after in vitro induction of EMT
# Format: cell-based, human
# Protocol: To induce the EMT of SAS cells, cells were seeded in 60 mm^2 dishes at the density of 1 × 10^6 cells/dish overnight and incubated with 1.25 and 10 μM Unc0642. After 24 h, cells were exposed under 2 Gy and 4 Gy of radiation by a RS2000 Series Biological Irradiator (Rad Source Technologies Inc, Buford, GA, USA) and replaced with fresh Unc0642 containing medium every 24 h. The expression of vimentin and E-cadherin were detected by western blotting.
# Cultured cells were placed on ice, washed by ice-cold PBS and lysed using CytoBuster Protein Extraction Reagent (cat. 71,009, Bedford, MA, USA) containing Protease Inhibitor Cocktail Set I (cat. 539131, Millipore, Bedford, MA, USA). Cells were then scraped, collected in Eppendorf tubes and the sonicated for 30 min. The lysate was spun down at 12,000 g for 10 min at 4 °C. The protein content was measured using Bradford reagent (BIO-RAD, Hercules, CA, USA). The equal amounts of protein (40 μg) were separated in SDS-PAGE gels (30% Acrylamide/Bis Solution, 29:1, cat. 1610157, BIO-RAD, Hercules, CA, USA) and transferred to PVDF membranes (cat. NEF1002001PK, Perkin-Elmer life sciences, Boston, MA, USA). For immunoblotting, membranes were cut in terms of the molecular weight range prior to hybridization with primary antibody for vimentin (GTX100619, GeneTex, Irvine, CA, USA), nucleolin (GTX132778, GeneTex, Irvine, CA, USA), E-cadherin (GTX50757, GeneTex, Irvine, CA, USA) and b-actin (GTX109639, GeneTex, Irvine, CA, USA) overnight at 4 °C and then incubated with horseradish peroxidase HRP-conjugate goat anti-rabbit IgG (GeneTex, Irvine, CA, USA). Protein signals were visualized using a LumiFast Chemiluminescence Detection Kit (cat. JT96-K001S, T-Pro Biotechnology, Taiwan). Image capture was performed on an ImageQuant LAS4000 biomolecular image (GE healthcare life, Chicago, IL, USA). The intensities of protein bands were quantitated using ImageJ Gel Analysis program. Quantification of protein expression was performed by Image J. b-actin was used as loading control.
compound,measurement,setting,value
COc1cc2c(NC3CCN(C(C)C)CC3)nc(N3CCC(F)(F)CC3)nc2cc1OCCCN1CCCC1 [Unc0642],Vimentin expression,"1.25 μM Unc0642, western blot",increased
same,Nucleolin level,"1.25 μM Unc0642, western blot, p < 0.05",slightly increased
same,Vimentin expression,"10 μM Unc0642, western blot",almost unchanged
same,Vimentin expression versus control SAS cells,"2 Gy of IR and 1.25 μM Unc0642, western blot normalized to b-actin, p < 0.01",~ twofold
same,E-cadherin protein expression,"Unc0642 alone, western blot",diminished protein expression level
